Paper PMC7445428, “Simplified dolutegravir dosing for children with HIV weighing 20 kg or more: pharmacokinetic and safety substudies of the multicentre, randomised ODYSSEY trial” (The Lancet. HIV, 2020)
Read-outs that look alike come from different tables or passages of the source. Marks after values point to notes of the source that are not given here.

Columns and labels:
[1] = parameters: method as in earlier work; details: cited from earlier work
[2] = Safety follow-up (serious, grade 3 or 4 adverse events) over 24 weeks in children of the pharmacokinetic substudies; assay type: in vivo, human
Method: Children enrolled in the pharmacokinetic substudies attended study visits following the main ODYSSEY trial protocol (visits every 12 weeks after week 4 from enrolment). Participants whose dose was increased to 30 mg dispersible tablets or the 50 mg film-coated tablet had additional safety visits at weeks 2, 4, and 12 after dose adaptation. At each visit, we did a clinical assessment, including haematology and biochemistry safety parameters. We ascertained serious adverse events (defined according to International Conference on Harmonisation Guideline for Good Clinical Practice), grade 3 and 4 clinical and laboratory events, and events resulting in modification of ART (any grade).
All children consenting to inclusion in a pharmacokinetic substudy contributed safety data from the start of each pharmacokinetic dose for 24 weeks or to last follow-up visit, whichever was earlier; no participant commenced a second pharmacokinetic dose before completing 24 weeks on the first pharmacokinetic dose with the exception of children weighing 25 kg to less than 40 kg crossing over from the doses approved by the SRAs at the time of the study the 50 mg film-coated tablet, with which follow-up could be shorter. As part of the ODYSSEY trial, an independent endpoint review committee who were masked to trial groups (third drug of ART regimen) reviewed all reported adverse events. We did descriptive analysis reporting follow-up and adverse events by dose and weight band in STATA (version 15.0). An independent data monitoring committee reviewed conduct, pharmacokinetic, and safety data from these substudies. The ODYSSEY trial is registered with ClinicalTrials.gov, NCT02259127.

[3] = tested on: plasma HIV-1 RNA; parameters: method as in PMID 22018760; details: adults, 96 weeks, cited from earlier work
[4] = parameters: method as in PMID 22183173; details: adult healthy volunteers, cited from earlier work
[5] = parameters: species or system human
Method: The pharmacokinetic substudy for children weighing 25 kg to less than 40 kg was a within-subject, two-period, fixed-order, pharmacokinetic study with paediatric dolutegravir doses approved by the SRAs at the time of the study used in the first period and a higher (adult) dose of 50 mg as film-coated tablet in the second period. A child first completed 24-h intensive pharmacokinetic sampling after at least 1 week of receiving 25 mg film-coated tablets if they were in the 25 kg to less than 30 kg weight band or 35 mg (one 10 mg and one 25 mg film-coated tablet) if they were in the 30 to less than 40 kg weight band. The second 24-h pharmacokinetic profile was taken at least 1 week after the switch to a daily 50 mg film-coated tablet.
In a parallel pharmacokinetic substudy, children weighing 20 kg to less than 25 kg had 24-h intensive pharmacokinetic profiling on the once-daily dose of dolutegravir 25 mg film-coated tablet (part one). After review of the results, we did a subsequent substudy (part two) in children weighing 20 to less than 25 kg, investigating higher dolutegravir doses to achieve better exposures. On the basis of results of part one and to simplify dosing and future access to formulations, we studied the 50 mg adult film-coated tablet. Because we were concurrently investigating dispersible dolutegravir tablets in children weighing less than 20 kg (not reported here), we also studied a 30 mg dose given as six 5 mg dispersible tablets, which is bioequivalent to a 50 mg film-coated tablet,[16] as an option for children unable to swallow adult tablets. Dolutegravir 50 mg film-coated tablet or 30 mg dispersible tablet formulations were allocated by site. This substudy primarily enrolled children who had not participated in part one because children initially recruited in this weight band had gained weight and were no longer in the weight band.
To achieve steady-state, children attended their pharmacokinetic study visit day at least 7 days after starting on the investigated dolutegravir dose. We ascertained medication adherence during the last 3 days before the day of pharmacokinetic assessment to ensure that no doses had been missed. To construct a dolutegravir plasma concentration-time profile, blood samples of 2 mL were taken at baseline and 1, 2, 3, 4, 6, and 24 h after observed dolutegravir intake with 100 mL of water. To conform with adult comparator studies, participants fasted at least 3 h before dolutegravir intake, although an overnight fast was preferred. Dispersible tablets were dispersed in a small amount of water and immediately taken, followed by an additional intake of water up to a volume of 100 mL. We allowed no medications, other than nucleoside reverse transcriptase inhibitors, within 2 h after dolutegravir intake. Children fasted 2 h after dolutegravir intake before having a light breakfast (containing approximately 250 calories). During pharmacokinetic assessment days all food was provided at set times.
We refrigerated blood samples within 10 min and centrifuged them within 24 h of collection. Plasma was separated and stored at −80°C until shipping to the laboratory of the Department of Pharmacy, Radboudumc, Nijmegen, Netherlands for quantification with a validated liquid chromatography tandem mass spectrometry bioanalytical quantification method (lower limit of quantification of 0·01 mg/L).[18]
We included all participants consenting to inclusion in the pharmacokinetic substudies in the safety analyses. For the pharmacokinetic analyses, we considered haemolysed samples non-evaluable and excluded pharmacokinetic profiles if treatment non-adherence was likely (predefined when a predose concentration [C0] was >15 times below the concentration 24 h after observed drug intake (trough concentration [Ctrough]), if protocol violations had occurred, or if concomitant medications known to affect dolutegravir drug concentrations had been used. […]

[6] = 20 to <25 kg, 9 patients (50 mg) FCT
[7] = 20 to <25 kg, 10 patients (30 mg) DT
[8] = 20 to <25 kg, 17 patients (25 mg) FCT
[9] = 25 to <30 kg, 17 patients (25 mg) FCT
[10] = 25 to <30 kg, 17 patients (50 mg) FCT
[11] = 30 to <40 kg, 11 patients (35 mg) FCT
[12] = 30 to <40 kg, 11 patients (50 mg) FCT

C[C@@H]1CCO[C@H]2Cn3cc(C(=O)NCc4ccc(F)cc4F)c(=O)c(O)c3C(=O)N12 [dolutegravir]
Bioequivalence of 30 mg dose as six 5 mg dispersible tablets to 50 mg film-coated tablet [1]: bioequivalent | Total adverse events (grade 3 or 4 or serious adverse event) ([2]; 17 patients (25 mg) FCT): 3 (18%) n (%) | Anaemia (grade 3 or 4 asymptomatic laboratory event) [2, 6]: 0 n (%) | Cryptococcal meningitis (grade 3 or 4 clinical adverse event) [2, 6]: 0 n (%) | Grade 3 or 4 asymptomatic laboratory events [2, 6]: 0 n (%) | Grade 3 or 4 clinical adverse events [2, 6]: 0 n (%) | Neutropenia (grade 3 or 4 asymptomatic laboratory event) [2, 6]: 0 n (%) | Thrombocytopenia and raised transaminases (grade 3 or 4 asymptomatic laboratory event) [2, 6]: 0 n (%) | Anaemia (grade 3 or 4 asymptomatic laboratory event) [2, 7]: 0 n (%) | Cryptococcal meningitis (grade 3 or 4 clinical adverse event) [2, 7]: 0 n (%) | Grade 3 or 4 asymptomatic laboratory events [2, 7]: 0 n (%) | Grade 3 or 4 clinical adverse events [2, 7]: 0 n (%) | Neutropenia (grade 3 or 4 asymptomatic laboratory event) [2, 7]: 0 n (%) | Thrombocytopenia and raised transaminases (grade 3 or 4 asymptomatic laboratory event) [2, 7]: 0 n (%) | Anaemia (grade 3 or 4 asymptomatic laboratory event) [2, 8]: 0 n (%) | Cryptococcal meningitis (grade 3 or 4 clinical adverse event) [2, 8]: 0 n (%) | Grade 3 or 4 asymptomatic laboratory events [2, 8]: 3 (18%) n (%) | Grade 3 or 4 clinical adverse events [2, 8]: 0 n (%) | Anaemia (grade 3 or 4 asymptomatic laboratory event) [2, 9]: 0 n (%) | Cryptococcal meningitis (grade 3 or 4 clinical adverse event) [2, 9]: 0 n (%) | Grade 3 or 4 asymptomatic laboratory events [2, 9]: 0 n (%) | Grade 3 or 4 clinical adverse events [2, 9]: 0 n (%) | Neutropenia (grade 3 or 4 asymptomatic laboratory event) [2, 9]: 0 n (%) | Thrombocytopenia and raised transaminases (grade 3 or 4 asymptomatic laboratory event) [2, 9]: 0 n (%) | Anaemia (grade 3 or 4 asymptomatic laboratory event) [2, 10]: 0 n (%) | Cryptococcal meningitis (grade 3 or 4 clinical adverse event) [2, 10]: 0 n (%) | Grade 3 or 4 asymptomatic laboratory events [2, 10]: 1 (6%) n (%) | Grade 3 or 4 clinical adverse events [2, 10]: 0 n (%) | Neutropenia (grade 3 or 4 asymptomatic laboratory event) [2, 10]: 1 (6%) n (%) | Thrombocytopenia and raised transaminases (grade 3 or 4 asymptomatic laboratory event) [2, 10]: 0 n (%) | Total adverse events (grade 3 or 4 or serious adverse event) [2, 10]: 1 (6%) n (%) | Reportable adverse events ([2]; 28 children weighing 25 kg or more on 50 mg film-coated tablets, follow-up 24 weeks): three | Anaemia (grade 3 or 4 asymptomatic laboratory event) [2, 11]: 0 n (%) | Cryptococcal meningitis (grade 3 or 4 clinical adverse event) [2, 11]: 0 n (%) | Grade 3 or 4 asymptomatic laboratory events [2, 11]: 0 n (%) | Grade 3 or 4 clinical adverse events [2, 11]: 0 n (%) | Neutropenia (grade 3 or 4 asymptomatic laboratory event) [2, 11]: 0 n (%) | Thrombocytopenia and raised transaminases (grade 3 or 4 asymptomatic laboratory event) [2, 11]: 0 n (%) | Anaemia (grade 3 or 4 asymptomatic laboratory event) [2, 12]: 1 (9%) n (%) | Grade 3 or 4 asymptomatic laboratory events [2, 12]: 1 (9%) n (%) | Grade 3 or 4 clinical adverse events [2, 12]: 1 (9%) n (%) | Neutropenia (grade 3 or 4 asymptomatic laboratory event) [2, 12]: 0 n (%) | Thrombocytopenia and raised transaminases (grade 3 or 4 asymptomatic laboratory event) [2, 12]: 0 n (%) | Total adverse events (grade 3 or 4 or serious adverse event) [2, 12]: 2 (18%) n (%) | Cryptococcal meningitis (grade 3 or 4 clinical adverse event) ([2]; 30 to <40 kg, 11 patients (50 mg) FCT, serious adverse event): 1 (9%) ^** n (%) | Adverse events considered related to dolutegravir ([2]; 47 children on 50 mg film-coated tablet or 30 mg dispersible tablets, reporting clinicians and endpoint review committee): none | Sustained virological response rate (plasma HIV-1 RNA <50 copies per mL) ([3]; 10 mg film-coated tablet once daily): 79% | Sustained virological response rate (plasma HIV-1 RNA <50 copies per mL) ([3]; 50 mg film-coated tablet once daily): 88% | Increase of C24 with food compared with fasting ([4]; high fat meal): 73% | Increase of C24 with food compared with fasting ([4]; low fat meal): 33% | Increase of C24 with food compared with fasting ([4]; moderate fat meal): 45% | Children with individual Ctrough below 0·32 mg/L (in vivo EC90) ([5]; human, 24 h): 12 (30%) n (%) | AUC0-24h / Dose geometric mean ratio (90% CI), 50 mg FCT vs 25/35 mg FCT ([5]; human, in vivo): 0∙91 (0∙85-0∙97) | Cmax / Dose geometric mean ratio (90% CI), 50 mg FCT vs 25/35 mg FCT ([5]; human, in vivo): 0∙89 (0∙82-0∙96) | GM Cmax higher than in adults on 50 mg twice-daily ([5]; human, in vivo): 32% | GM Cmax higher than in adults on 50 mg twice-daily ([5]; human, in vivo, 50 mg): 17% | Ctrough / Dose geometric mean ratio (90% CI), 50 mg FCT vs 25/35 mg FCT ([5]; human, in vivo, 24 h): 0∙98 (0∙87-1∙10) | Ctrough geometric mean ratio (90% CI), 50 mg FCT vs 30 mg DT ([5]; human, in vivo, 24 h): 0∙99 (0∙57-1∙71) | Equivalence, 50 mg FCT vs 30 mg DT ([5]; in vivo): Suggested
